Format in all cases: functional, cell-based
Assay [1] relates to OVCAR-3. As to the kind of experiment: The compound was tested in vitro for cytotoxic activity against OVCAR-3 cell line (human ovarian carcinoma).
Assay [2] deals with 786-0. The assay is described as follows: The compound was tested in vitro for cytotoxic activity against 786-O cell line (human perirenal carcinoma).
The subject of assay [3] is SK-MEL-28. The assay is described as follows: The compound was tested in vitro for cytotoxic activity against SK-MEL 28 cell line (human melanoma).
Assay [4] deals with L1210. The assay is described as follows: The compound was tested in vitro for cytotoxic activity against L1210 cell line (mouse leukemia).
Assay [5] concerns H322. As to the kind of experiment: The compound was tested in vitro for cytotoxic activity against H 322 cell line (human lung adenocarcinoma). As to conditions: NCI-H322.
Assay [6] relates to BT-549. The assay is described as follows: The compound was tested in vitro for cytotoxic activity against BT-549 cell line (human breast carcinoma).
Assay [7] in a line: The compound was tested in vitro for cytotoxic activity against UCLA-P3 cell line (human lung adenocarcinoma). Conditions: UCLA P-3.
Assay [8] relates to PC-3. The assay is described as follows: The compound was tested in vitro for cytotoxic activity against PC-3 cell line (human prostate carcinoma).
In assay [9] the test system is HT-29. As to the kind of experiment: The compound was tested in vitro for cytotoxic activity against HT-29 cell line (human colon adenocarcinoma).
Assay [10] relates to MOLT-4. As to the kind of experiment: The compound was tested in vitro for cytotoxic activity against Molt-4 cell line (human T-cell leukemia).
For assay [11], the system named is MCF7. The assay is described as follows: The compound was tested in vitro for cytotoxic activity against MCF-7 cell line (human breast carcinoma).
Assay [12] in a line: The compound was tested in vitro for cytotoxic activity against M24-MET cell line (human metastatic melanoma). Conditions: M24met.
The subject of assay [13] is B16. As to the kind of experiment: The compound was tested in vitro for cytotoxic activity against B-16 cell line (mouse melanoma).
Assay [14] deals with HL-60. The assay is described as follows: The compound was tested in vitro for cytotoxic activity against HL-60 cell line (human promyelomic leukemia).
For assay [15], the system named is SiHa. The assay is described as follows: The compound was tested in vitro for cytotoxic activity against SIHA cell line (human cervix carcinoma).

Experimental findings from ChEMBL document CHEMBL1129898, “An exceptionally potent analog of sandramycin” (Bioorg Med Chem Lett, 1997) are described below.

Broadly, the IC50 is the point on the concentration scale where inhibition reaches its midpoint. Read a high IC50 as a need for much substance. With `CC(C)[C@H]1C(=O)OC[C@@H](NC(=O)c2ccc3ccccc3n2)C(=O)N2CCCC[C@H]2C(=O)NCC(=O)N(C)CC(=O)N(C)[C@@H](C(C)C)C(=O)OC[C@@H](NC(=O)c2ccc3ccccc3n2)C(=O)N2CCCC[C@H]2C(=O)NCC(=O)N(C)CC(=O)N1C`, the half-maximal inhibitory concentration (IC50) worked out at 1 nM in [1]; 0.01 nM in [2]; 0.001 nM in assay [3]; 0.2 nM in assay [4]; 10 nM in [5]; 0.01 nM in [6]. Moreover, the IC50 was determined as 0.002 nM in assay [7]; 0.001 nM in [8]; 0.01 nM in assay [9]; 3 nM in [10]; 0.04 nM in [11]; 0.04 nM in [12]. The IC50 in assay [13] came out at 0.06 nM; in [14] it was 0.001 nM; in assay [15] it was 0.001 nM.
Turning to `CC(C)[C@H]1C(=O)OC[C@@H](NC(=O)c2nc3ccccc3cc2O)C(=O)N2CCCC[C@H]2C(=O)NCC(=O)N(C)CC(=O)N(C)[C@@H](C(C)C)C(=O)OC[C@@H](NC(=O)c2nc3ccccc3cc2O)C(=O)N2CCCC[C@H]2C(=O)NCC(=O)N(C)CC(=O)N1C`, the IC50 was 4 nM in [1]; 8 nM in assay [2]; 1 nM in assay [3]; 0.02 nM in assay [4]; 20 nM in assay [5]; 1 nM in [6]. In addition, the half-maximal inhibitory concentration (IC50) stood at 10 nM in [7]; 0.2 nM in [8]; 1 nM in [9]; 0.7 nM in assay [10]; 300 nM in assay [11]; 0.4 nM in [12]. In addition, the IC50 in [13] came to 0.4 nM; in assay [14] it was 80 nM; in assay [15] it was 0.3 nM.
